Laboratory results from US9302999B2, “Substituted triazoles as herbicides” (E. I. DU PONT DE NEMOURS AND COMPANY, priority 2012, dated 2016).

Assays:
Type in all cases: in vivo
[1] = test system: barnyardgrass (Echinochloa crus-galli); experiment: Test A pre-/postemergence: barnyardgrass
How it was run: (§1)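 Whole-plant greenhouse assay in loam/sand. Preemergence directed soil spray plus simultaneous postemergence spray (one- to two-leaf stage, 2–10 cm). Rated visually ~10 days later, 0 = no effect, 100 = complete control.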

[2] = test system: crabgrass, large (large crabgrass, Digitaria sanguinalis); experiment: Test A pre-/postemergence: crabgrass, large
How it was run: as §1

[3] = test system: foxtail, giant (giant foxtail, Setaria faberii); experiment: Test A pre-/postemergence: foxtail, giant
How it was run: as §1

[4] = test system: morningglory (Ipomoea spp.); experiment: Test A pre-/postemergence: morningglory
How it was run: as §1

[5] = test system: velvetleaf (Abutilon theophrasti); experiment: Test A pre-/postemergence: velvetleaf
How it was run: as §1

[6] = test system: ryegrass, Italian (Italian ryegrass, Lolium multiflorum); experiment: Test C pre-/postemergence: ryegrass, Italian
How it was run: (§2)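 Preemergence on seeds in loam/sand, postemergence on 2–18 cm (1–4-leaf) plants in peat-based medium; compounds in non-phytotoxic solvent with surfactant. After 13–15 days in greenhouse, visual rating versus controls, 0 (no effect) to 100 (complete control).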

wild oat (Avena fatua) = experiment: Test C pre-/postemergence: wild oat; conditions: Postemergence
How it was run: as §2

[7] = test system: galium (catchweed bedstraw, Galium aparine); experiment: Test C pre-/postemergence: galium
How it was run: as §2

[8] = test system: large crabgrass (Digitaria sanguinalis); experiment: Test C pre-/postemergence: large crabgrass
How it was run: as §2

[9] = test system: nutsedge, yellow (yellow nutsedge, Cyperus esculentus); experiment: Test C pre-/postemergence: nutsedge, yellow
How it was run: as §2

[10] = test system: chickweed (common chickweed, Stellaria media); experiment: Test C postemergence: chickweed
How it was run: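 Visual 0–100 injury score vs untreated controls (0 none, 100 complete control), taken 13–15 d after treatment. Postemergence spray on potted plants, 2–18 cm, 1–4 leaves; greenhouse.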

[11] = Postemergence, 125 g ai/ha, 0 to 100 scale, 0 is no effect, 100 is complete control
[12] = Postemergence, 500 g ai/ha, 0 to 100 scale, 0 is no effect, 100 is complete control
[13] = Preemergence, 125 g ai/ha, 0 to 100 scale where 0 is no effect and 100 is complete control
[14] = Preemergence, 500 g ai/ha, 0 to 100 scale (0 no effect, 100 complete control)
[15] = Postemergence, 31 g ai/ha, scale 0 to 100 (0 no effect, 100 complete control)
[16] = Postemergence, 62 g ai/ha, scale 0 to 100 (0 no effect, 100 complete control)
[17] = Postemergence, 125 g ai/ha, scale 0 to 100, 0 no effect, 100 complete control
[18] = Postemergence, 250 g ai/ha, scale 0 to 100 (0 no effect, 100 complete control)
[19] = Preemergence, 31 g ai/ha, scale 0 (no effect) to 100 (complete control)
[20] = Preemergence, 62 g ai/ha, scale of 0 to 100, 0 is no effect, 100 is complete control
[21] = Preemergence, 125 g ai/ha, scale 0 to 100, 0 no effect, 100 complete control
[22] = Preemergence, 250 g ai/ha, scale 0 to 100, 0 no effect, 100 complete control
[23] = 31 g ai/ha, scale 0 to 100 (0 no effect, 100 complete control)
[24] = 62 g ai/ha, scale 0 to 100 (0 no effect, 100 complete control)
[25] = 125 g ai/ha, scale 0 to 100, 0 no effect, 100 complete control
[26] = 250 g ai/ha, scale 0 to 100 (0 no effect, 100 complete control)
[27] = Postemergence, 250 g ai/ha, scale 0 to 100

CCCc1nn(-c2ccc(F)cc2)nc1Oc1ccnc(C(F)(F)F)c1 [Compound 168]
98: Plant response rating, Ryegrass, Italian [6, 20]
20: Plant response rating, Morningglory [4, 13] | Plant response rating, Nutsedge, Yellow [9, 18]
5: Plant response rating, Nutsedge, Yellow [9, 21] | Plant response rating, Nutsedge, Yellow [9, 22]
50: Plant response rating, Morningglory [4, 14] | Plant response rating, Oat, Wild (wild oat (Avena fatua); [25])
95: Plant response rating, Galium [7, 18] | Plant response rating, Crabgrass, Large [8, 17] | Plant response rating, Crabgrass, Large [8, 27]
0: Plant response rating, Nutsedge, Yellow [9, 19] | Plant response rating, Nutsedge, Yellow [9, 20]
35: Plant response rating, Ryegrass, Italian [6, 16]
80: Plant response rating, Ryegrass, Italian [6, 18] | Plant response rating, Chickweed [10, 23] | Plant response rating, Chickweed [10, 24]
100: Plant response rating, Barnyardgrass [1, 14] | Plant response rating, Crabgrass, Large [2, 13] | Plant response rating, Crabgrass, Large [2, 14] | Plant response rating, Foxtail, Giant [3, 13] | Plant response rating, Foxtail, Giant [3, 14] | Plant response rating, Velvetleaf [5, 11] | Velvetleaf plant response rating [5, 12] | Plant response rating, Ryegrass, Italian [6, 21] | Plant response rating, Ryegrass, Italian [6, 22] | Plant response rating, Galium [7, 20] | Plant response rating, Galium [7, 21] | Plant response rating, Galium [7, 22] | Plant response rating, Crabgrass, Large [8, 19] | Plant response rating, Crabgrass, Large [8, 20] | Plant response rating, Crabgrass, Large [8, 21] | Plant response rating, Crabgrass, Large [8, 22] | Plant response rating, Chickweed ([10]; 250 g ai/ha, scale 0 to 100)
85: Plant response rating, Galium [7, 19]
90: Plant response rating, Barnyardgrass [1, 11] | Barnyardgrass plant response rating [1, 12] | Plant response rating, Barnyardgrass [1, 13] | Plant response rating, Crabgrass, Large [2, 11] | Crabgrass, Large plant response rating [2, 12] | Plant response rating, Foxtail, Giant [3, 11] | Foxtail, Giant plant response rating [3, 12] | Plant response rating, Velvetleaf [5, 14] | Plant response rating, Galium [7, 15] | Plant response rating, Galium [7, 16] | Plant response rating, Galium [7, 17] | Plant response rating, Chickweed [10, 25]
60: Plant response rating, Ryegrass, Italian [6, 17] | Plant response rating, Oat, Wild (wild oat (Avena fatua); [26])
45: Plant response rating, Oat, Wild (wild oat (Avena fatua); [24])
65: Plant response rating, Crabgrass, Large [8, 16]
10: Plant response rating, Ryegrass, Italian [6, 15] | Plant response rating, Nutsedge, Yellow [9, 15] | Plant response rating, Nutsedge, Yellow [9, 16]
70: Plant response rating, Ryegrass, Italian [6, 19]
30: Plant response rating, Velvetleaf [5, 13] | Plant response rating, Oat, Wild (wild oat (Avena fatua); [23]) | Plant response rating, Crabgrass, Large [8, 15]
15: Plant response rating, Nutsedge, Yellow [9, 17]

CCc1nn(-c2ccc(C(F)(F)F)cc2)nc1Oc1ccnc(C(F)(F)F)c1 [Compound 169]
100: Plant response rating, Crabgrass, Large [2, 13] | Plant response rating, Crabgrass, Large [2, 14] | Plant response rating, Foxtail, Giant [3, 13] | Plant response rating, Foxtail, Giant [3, 14] | Plant response rating, Velvetleaf [5, 11] | Velvetleaf plant response rating [5, 12] | Plant response rating, Galium [7, 19] | Plant response rating, Galium [7, 20] | Plant response rating, Galium [7, 21] | Plant response rating, Galium [7, 22] | Plant response rating, Crabgrass, Large [8, 19] | Plant response rating, Crabgrass, Large [8, 20] | Plant response rating, Crabgrass, Large [8, 21] | Plant response rating, Crabgrass, Large [8, 22] | Plant response rating, Chickweed ([10]; 250 g ai/ha, scale 0 to 100)
90: Barnyardgrass plant response rating [1, 12] | Plant response rating, Barnyardgrass [1, 14] | Plant response rating, Crabgrass, Large [2, 11] | Crabgrass, Large plant response rating [2, 12] | Foxtail, Giant plant response rating [3, 12] | Plant response rating, Velvetleaf [5, 14] | Plant response rating, Ryegrass, Italian [6, 20] | Plant response rating, Ryegrass, Italian [6, 21] | Plant response rating, Galium [7, 16] | Plant response rating, Galium [7, 17]
5: Plant response rating, Oat, Wild (wild oat (Avena fatua); [23]) | Plant response rating, Nutsedge, Yellow [9, 15] | Plant response rating, Nutsedge, Yellow [9, 16] | Plant response rating, Nutsedge, Yellow [9, 20] | Plant response rating, Nutsedge, Yellow [9, 21] | Plant response rating, Nutsedge, Yellow [9, 22]
25: Plant response rating, Ryegrass, Italian [6, 17] | Plant response rating, Oat, Wild (wild oat (Avena fatua); [24])
60: Plant response rating, Chickweed [10, 23] | Plant response rating, Chickweed [10, 24]
10: Plant response rating, Ryegrass, Italian [6, 15] | Plant response rating, Ryegrass, Italian [6, 16] | Plant response rating, Nutsedge, Yellow [9, 17] | Plant response rating, Nutsedge, Yellow [9, 18]
35: Plant response rating, Crabgrass, Large [8, 15] | Plant response rating, Crabgrass, Large [8, 16]
20: Plant response rating, Morningglory [4, 13]
95: Plant response rating, Ryegrass, Italian [6, 22] | Plant response rating, Galium [7, 18] | Plant response rating, Chickweed [10, 25]
40: Plant response rating, Morningglory [4, 14] | Plant response rating, Ryegrass, Italian [6, 18] | Plant response rating, Crabgrass, Large [8, 17]
80: Plant response rating, Barnyardgrass [1, 11] | Plant response rating, Barnyardgrass [1, 13] | Plant response rating, Foxtail, Giant [3, 11] | Plant response rating, Galium [7, 15] | Plant response rating, Crabgrass, Large [8, 27]
30: Plant response rating, Oat, Wild (wild oat (Avena fatua); [25])
50: Plant response rating, Velvetleaf [5, 13] | Plant response rating, Oat, Wild (wild oat (Avena fatua); [26])
85: Plant response rating, Ryegrass, Italian [6, 19]
0: Plant response rating, Nutsedge, Yellow [9, 19]

CCCc1nn(-c2ccc(C(F)(F)F)cc2)nc1Oc1ccnc(C(F)(F)F)c1 [Compound 170]
80: Plant response rating, Galium [7, 15] | Plant response rating, Crabgrass, Large [8, 17]
98: Plant response rating, Galium [7, 19]
30: Plant response rating, Oat, Wild (wild oat (Avena fatua); [23]) | Plant response rating, Crabgrass, Large [8, 15] | Plant response rating, Crabgrass, Large [8, 16]
5: Plant response rating, Nutsedge, Yellow [9, 15] | Plant response rating, Nutsedge, Yellow [9, 16] | Plant response rating, Nutsedge, Yellow [9, 17] | Plant response rating, Nutsedge, Yellow [9, 20] | Plant response rating, Nutsedge, Yellow [9, 22]
90: Plant response rating, Barnyardgrass [1, 11] | Barnyardgrass plant response rating [1, 12] | Plant response rating, Foxtail, Giant [3, 11] | Foxtail, Giant plant response rating [3, 12] | Plant response rating, Morningglory [4, 14] | Plant response rating, Velvetleaf [5, 13] | Plant response rating, Ryegrass, Italian [6, 20] | Plant response rating, Oat, Wild (wild oat (Avena fatua); [26]) | Plant response rating, Galium [7, 16] | Plant response rating, Galium [7, 17] | Plant response rating, Galium [7, 18] | Plant response rating, Crabgrass, Large [8, 27]
10: Plant response rating, Nutsedge, Yellow [9, 18]
65: Plant response rating, Oat, Wild (wild oat (Avena fatua); [24])
75: Plant response rating, Chickweed [10, 23]
85: Plant response rating, Oat, Wild (wild oat (Avena fatua); [25])
0: Plant response rating, Nutsedge, Yellow [9, 19]
70: Plant response rating, Morningglory [4, 13] | Plant response rating, Ryegrass, Italian [6, 18]
95: Plant response rating, Ryegrass, Italian [6, 21] | Plant response rating, Ryegrass, Italian [6, 22] | Plant response rating, Chickweed [10, 24] | Plant response rating, Chickweed ([10]; 250 g ai/ha, scale 0 to 100)
100: Plant response rating, Crabgrass, Large [2, 11] | Crabgrass, Large plant response rating [2, 12] | Plant response rating, Crabgrass, Large [2, 13] | Plant response rating, Crabgrass, Large [2, 14] | Plant response rating, Foxtail, Giant [3, 13] | Plant response rating, Foxtail, Giant [3, 14] | Plant response rating, Morningglory [4, 11] | Morningglory plant response rating [4, 12] | Plant response rating, Velvetleaf [5, 11] | Velvetleaf plant response rating [5, 12] | Plant response rating, Velvetleaf [5, 14] | Plant response rating, Galium [7, 20] | Plant response rating, Galium [7, 21] | Plant response rating, Galium [7, 22] | Plant response rating, Crabgrass, Large [8, 19] | Plant response rating, Crabgrass, Large [8, 20] | Plant response rating, Crabgrass, Large [8, 21] | Plant response rating, Crabgrass, Large [8, 22]
35: Plant response rating, Ryegrass, Italian [6, 16] | Plant response rating, Ryegrass, Italian [6, 17]
55: Plant response rating, Ryegrass, Italian [6, 19]
15: Plant response rating, Ryegrass, Italian [6, 15]
